T1: TGF-β1-α2M* complex (Homo sapiens, UniProt P01023)
T1 construct: was purified from pooled citrate-treate human plasma; from tissue; host or cells: pooled citrate-treated human plasma
T1 sequence (P01023 24-1474): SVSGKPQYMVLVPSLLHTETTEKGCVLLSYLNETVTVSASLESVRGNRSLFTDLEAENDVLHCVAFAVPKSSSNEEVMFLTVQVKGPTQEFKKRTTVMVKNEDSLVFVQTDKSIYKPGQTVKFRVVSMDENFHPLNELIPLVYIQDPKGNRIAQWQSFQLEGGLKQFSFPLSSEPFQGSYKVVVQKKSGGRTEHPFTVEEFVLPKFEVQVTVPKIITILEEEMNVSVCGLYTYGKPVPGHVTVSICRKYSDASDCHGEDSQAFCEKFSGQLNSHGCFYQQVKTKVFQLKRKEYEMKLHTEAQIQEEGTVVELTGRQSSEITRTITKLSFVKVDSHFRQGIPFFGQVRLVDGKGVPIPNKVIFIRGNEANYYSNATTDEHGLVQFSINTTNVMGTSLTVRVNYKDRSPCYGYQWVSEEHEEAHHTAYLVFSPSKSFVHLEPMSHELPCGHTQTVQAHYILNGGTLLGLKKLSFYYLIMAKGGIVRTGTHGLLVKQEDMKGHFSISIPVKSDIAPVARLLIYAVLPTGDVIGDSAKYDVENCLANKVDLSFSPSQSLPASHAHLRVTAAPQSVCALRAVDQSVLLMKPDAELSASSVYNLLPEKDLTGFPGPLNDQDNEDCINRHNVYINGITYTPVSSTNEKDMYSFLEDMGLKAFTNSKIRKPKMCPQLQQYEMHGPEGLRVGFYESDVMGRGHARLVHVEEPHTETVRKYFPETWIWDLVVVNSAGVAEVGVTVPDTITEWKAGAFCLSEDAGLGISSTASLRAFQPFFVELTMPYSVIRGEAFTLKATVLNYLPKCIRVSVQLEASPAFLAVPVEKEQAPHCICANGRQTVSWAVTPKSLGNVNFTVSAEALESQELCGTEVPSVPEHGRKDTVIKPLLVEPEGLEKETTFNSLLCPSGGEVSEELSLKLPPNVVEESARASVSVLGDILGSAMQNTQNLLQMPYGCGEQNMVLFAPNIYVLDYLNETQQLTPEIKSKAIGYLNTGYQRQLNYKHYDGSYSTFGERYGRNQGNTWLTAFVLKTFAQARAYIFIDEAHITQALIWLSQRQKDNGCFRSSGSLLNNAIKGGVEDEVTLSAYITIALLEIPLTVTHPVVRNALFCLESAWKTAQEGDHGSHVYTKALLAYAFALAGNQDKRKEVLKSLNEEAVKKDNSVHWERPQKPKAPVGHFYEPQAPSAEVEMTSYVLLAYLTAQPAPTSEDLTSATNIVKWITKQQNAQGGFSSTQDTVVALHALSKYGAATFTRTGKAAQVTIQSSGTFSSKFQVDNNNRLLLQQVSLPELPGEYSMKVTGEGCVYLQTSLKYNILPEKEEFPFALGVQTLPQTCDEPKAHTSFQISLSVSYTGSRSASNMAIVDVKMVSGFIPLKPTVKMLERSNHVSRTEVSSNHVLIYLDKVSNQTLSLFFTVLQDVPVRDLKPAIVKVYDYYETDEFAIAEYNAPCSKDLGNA


What was measured:
[1] = target: T1, TGF-β1-α2M* complex; test: Inhibition of 125I-TGF-β1 and α2M* complex formation (5% non-denaturing PAGE, autoradiography); assay type: binding; conditions: for IC50: ~1 nM 125I-TGF-β1, 10 μg α2M* in 0.05 ml, 30 min room temperature, non-denaturing PAGE, read-out: IC50 for inhibiting complex formation between TGF-β1 and α2M*
Protocol: Saturated and unsaturated fatty acids are present in plasma and tissues (25,26). The effects of various concentrations of saturated fatty acids on the formation of complexes between ^125I-TGF ? β1 and ? 2M* were examined. ^125I-TGF- ? 1 (1 nM) was incubated μg/ml) in the presence of various concentrations of n-caprylic acid ([…]), lauric acid (12 carbon atoms), myristic acid (14 carbon atoms), palmitic acid (16 carbon atoms) and stearic acid (18 carbon atoms). After 30 min at room temperature, the reaction mixture was analyzed by 5% non-denaturing PAGE and autoradiography, a standard method form determining complex formation between TGF-β and α2M* (12). […] At 100 μM, it inhibited 20% of the complex formation between TGF ? β1 and α2M*. Esterification consistently abolished the inhibitory activities of the fatty acids.
Complex formation of ^125I-TGF-β and ? 2M*—The reaction mixture contained 10 μg of . α2M*, ˜1 nM of ^125I-TGF- ? 1, ^125I-TGF ? β2 or ^125I-TGF ? acids (dissolved in 100% ethanol) in 0.05 ml of 50 mM HEPES-NaOH buffer, pH 7.4. The final concentration of ethanol in the reaction mixture was 0.5%. These fatty acids and fatty acid derivatives were soluble under the experimental conditions. After 30 min at room temperature, the complex formation of ^125I-TGF- ? and. α2M* was determined by 5% non-denaturing polyacrylamide gel electrophoresis (PAGE) or by 7.5% SDS-PAGE following cross-linking by 0.6 mM DSS. After electrophoresis, the gel was stained with Coomassie blue and analyzed by autoradiography. The ^125I-TGF- ? - ? 2M* complex which co-migrated with free ? 2M* was quantified using a PhosphoImager (Fuji).

[2] = tested on: Mv1Lu cells; test: [Methyl-3H]-thymidine incorporation assay, TGF-β2-induced growth inhibition; assay type: cell-based, mink; conditions: 1 pM, absence of α2M*
From the text: The levels of TGF ? β and ? 2M* also increase dramatically. α2M* is capable of inhibiting TGF- ? activity by forming complexes with TGF- ? and thus preventing it from binding to TGF ? β receptors in cells involved. Fatty acids may potentiate TGF ? β activity by blocking complex formation of ? 2M* and TGF ? β under these conditions. To test this possibility, we determined the effects of arachidonic acid on ^125I-TGF- ? 2 binding (in the presence and absence of α2M*) to Mv1Lu cells. ? 2M* is known to inhibit TGF- ? 2 more strongly than TGF ? β1 binding to T receptors in cells (13). Various concentrations of ^125I-TGF- ? 2 were preincubated with 200 μg/ml of ? 2M* in the presence or absence of 30 μM arachidonic acid for 30 min prior to the performance of binding assays in Mv1Lu cells. […] The residual ^125I-TGF- ? binding associated with the cells after ? 2M* inhibition was mainly due to non-specific binding of ^125I-TGF- ? 2. […] In the presence of 200 μg/ml of ? 2M*, the dose-response curve of TGF ? β2 shifted to the right. […] Addition of arachidonic acid at 0.5 and 1 μM reversed the inhibitory effect of. α2M* on TGF- ? 2-induced growth inhibition as measured by [methyl-^3H]-thymidine incorporation.
[Methyl-^3H]-Thymidine Incorporation Assay—Mv1Lu cells were plated at a cell density of 7.5×10^4 cells/well in DMEM containing 0.1% fetal calf serum in 48-well cluster dishes. After 4 hr at 37° C. (to allow cell adherence), cells were treated with various concentrations of TGF- ? 2,2M* (0 or 200 μg/ml) and arachidonic acid ([…] or 1 μM). After 1h at 37° C., cells were pulsed with 1 μCi/ml [methyl-^3H]-thymidine for 2 hr. The [methyl-^3H]-th incorporation into cellular DNA was carried out in triplicate as described previously (23).

| IC50 [1] [µM] | Molecule | other results |
| --- | --- | --- |
| 5.2 ± 2 | CCCCCCCC/C=C\CCCCCCCC(=O)O [oleic acid] |  |
| 8.5 ± 1 | CCCCCCCCCCCCCCCC(=O)O [palmitic acid] |  |
|  | CCCCCC/C=C\CCCCCCCC(=O)O [palmitoleic acid] | activity compared with saturated counterparts of identical chain length [1]: weaker than their saturated counterparts |
| 6.6 ± 0.9 | CCCCCCCCCCCCCCCCCC(=O)O [stearic acid] |  |
| 8 ± 2 | CCCCC/C=C\C/C=C\C/C=C\CCCCC(=O)O [γ-linolenic acid] |  |
|  | TGF-β2: transforming growth factor β isoform 2, 25-kDa dimeric protein (protein, UniProt P61812 303-414, looked up) Transforming growth factor …: ALDAAYCFRNVQDNCCLRPLYIDFKRDLGWKWIHEPKGYNANFCAGACPYLWSSDTQHSRVLSLYNTINPEASASPCCVSQDLEPLTILYYIGKTPKIEQLSNMIVKSCKCS | inhibition of [methyl-3H]-thymidine incorporation into DNA [2]: approximately 25% |

— US20040229791A1, “Compositions and methods of modulating TGF-beta activity by fatty acids” (priority 2002, published 2004)
